Test results published in ChEMBL document CHEMBL1132145, “Effects of C-4 stereochemistry and C-4' hydroxylation on the iron clearing efficiency and toxicity of desferrithiocin analogues” (1999).

Key:
Format in all cases: functional
[1] = test system: Monkey; test: The compound was tested in vivo for the iron clearing activity against non -iron-overloaded Cebus apella monkey at a concentration of 150 uM/Kg, with distilled water
[2] = test system: Monkey; test: The compound was tested in vivo for the iron clearing activity against non -iron-overloaded Cebus apella monkey at a concentration of 300 uM/Kg
[3] = test system: Monkey; test: The compound was tested in vivo for the iron clearing activity against non -iron-overloaded Cebus apella monkey at a concentration of 150 uM/Kg
[4] = test system: Rattus norvegicus; test: The compound was tested in vivo for the iron clearing activity against non-iron-overloaded-bile duct cannulated rat, at a concentration of 150 uM/Kg
[5] = test system: Monkey; test: The compound was tested in vivo for the iron clearing activity against non -iron-overloaded Cebus apella monkey at a concentration of 300 uM/Kg with distilled water
[6] = test system: Monkey; test: The compound was tested in vivo for the iron clearing activity against non -iron-overloaded Cebus apella monkey at a concentration of 300 uM/Kg.
[7] = test system: Monkey; test: The compound was tested in vivo for the iron clearing activity against non-iron-overloaded Cebus apella monkey, values in parentheses indicate the % breakdown of iron excreted in stool and urine, at a concentration of 75 uM/Kg.
[8] = test system: Monkey; test: The compound was tested in vivo for the iron clearing activity against non-iron-overloaded Cebus apella monkey, values in parentheses indicate the % breakdown of iron excreted in stool and urine, at a concentration of 300 uM/Kg.
[9] = test system: Monkey; test: The compound was tested in vivo for the iron clearing activity against non -iron-overloaded Cebus apella monkey at a concentration of 150 uM/Kg.
[10] = test system: Rattus norvegicus; test: The compound was tested in vivo for the iron clearing activity against non-iron-overloaded-bile duct cannulated rat, at a concentration of 150 uM/Kg(po)
[11] = test system: Monkey; test: The compound was tested in vivo for the iron clearing activity against non -iron-overloaded Cebus apella monkey at a concentration of 75 uM/Kg

SMILES | Efficiency [3] | Efficiency [4] | Efficiency [6] | further results
O=C(O)[C@H]1CSC(c2ccc(O)cc2O)=N1 | 4.2% | 2.4% | – | Efficiency [1]: 5.6%; Efficiency [2]: 5.6%; Efficiency [5]: 4.8%
O=C(O)[C@H]1CSC(c2ncccc2O)=N1 | 4.8% | 2.4% | 8% | –
O=C(O)[C@H]1CSC(c2ccccc2O)=N1 | – | 1.4% | 12.4% | –
C[C@]1(C(=O)O)CSC(c2ccccc2O)=N1 | – | 2.7% | 13.1% | Efficiency [7]: 21.5%
O=C(O)[C@@H]1CSC(c2ncccc2O)=N1 | 0.5% | 3.9% | – | –
O=C(O)[C@@H]1CSC(c2ccccc2O)=N1 | – | 4.2% | – | Efficiency [8]: 8.2%
O=C(O)[C@@H]1CSC(c2ccc(O)cc2O)=N1 | – | – | – | Efficiency [9]: 1.7%; Efficiency [10]: <0.5%
C[C@]1(C(=O)O)CSC(c2ccc(O)cc2O)=N1 [DEFERITRIN] | – | <0.5% | – | Efficiency [9]: 13.4%; Efficiency [11]: 17.7%
C[C@]1(C(=O)O)CSC(c2ncccc2O)=N1 [DESFERRITHIOCIN] | 16.1% | 5.5% | – | –
